Reference: ChEMBL document CHEMBL3885881, “DrugMatrix”

Species on record: Rattus norvegicus
Test: DrugMatrix - Regimen: Daily Repeat
Assay type: toxicity, organism-based, Sprague-Dawley
Set-up: regimen Daily Repeat, gender Male, age 6-8 weeks
Settings: in vivo, po, […], route oral GAVAGE, vehicle 100 % WATER; for ALANINE AMINOTRANSFERASE / ALBUMIN / ALKALINE PHOSPHATASE / ASPARTATE AMINOTRANSFERASE / BLOOD UREA NITROGEN / CARBON DIOXIDE / CHLORIDE / CHOLESTEROL / CREATINE PHOSPHOKINASE / CREATININE / GLUCOSE / LACTATE DEHYDROGENASE / LIPASE / PHOSPHORUS / POTASSIUM / SODIUM / TOTAL BILIRUBIN / TOTAL PROTEIN / URIC ACID: tissue Plasma; for ABSOLUTE BASOPHIL / ABSOLUTE EOSINOPHIL / ABSOLUTE LYMPHOCYTE / ABSOLUTE MONOCYTE / ABSOLUTE SEGMENTED NEUTROPHIL / BASOPHIL / EOSINOPHIL / ERYTHROCYTE COUNT / HEMATOCRIT / HEMOGLOBIN / LEUKOCYTE COUNT / LYMPHOCYTE / MEAN CORPUSCULAR HEMOGLOBIN / MEAN CORPUSCULAR HEMOGLOBIN CONCENTRATION / MEAN CORPUSCULAR VOLUME / MONOCYTE / NEUTROPHIL / NUCLEATED RED BLOOD CELLS / PLATELET COUNT: tissue Blood
[1] = 72 h, dose 0.025 mg/Kg, dose level Low, time 3 day
[2] = 72 h, dose 0.25 mg/Kg, dose level High, time 3 day
[3] = 120 h, dose 0.025 mg/Kg, dose level Low, time 5 day
[4] = 120 h, dose 0.25 mg/Kg, dose level High, time 5 day

Q: For `C[C@@H]1C[C@@H]([C@H](O)CC2CC(=O)NC(=O)C2)C(=O)[C@@H](C)C1` [CYCLOHEXIMIDE], which “ALANINE AMINOTRANSFERASE” value [1] is on record?
A: 59.67 u/L

Q: And the ALBUMIN [1]?
A: 4.1 G/DL

Q: What about the “ALKALINE PHOSPHATASE” value [1] of the same compound?
A: 369.67 u/L

Q: What about the “ASPARTATE AMINOTRANSFERASE” value [1] of the same compound?
A: 107.33 u/L

Q: And the “BLOOD UREA NITROGEN” value [1]?
A: 15.67 mg/dL

Q: What about the “CARBON DIOXIDE” value [1] of the same compound?
A: 31 mmol/L

Q: What about the CHLORIDE [1] of the same compound?
A: 102 MEQ/L

Q: What about the CHOLESTEROL [1] of the same compound?
A: 69 mg/dL

Q: And the “CREATINE PHOSPHOKINASE” value [1]?
A: 1055 u/L

Q: And the CREATININE [1]?
A: 0.22 mg/dL

Q: What about the GLUCOSE [1] of the same compound?
A: 164 mg/dL

Q: What about the “LACTATE DEHYDROGENASE” value [1] of the same compound?
A: 240.33 u/L

Q: What about the LIPASE [1] of the same compound?
A: 9 u/L

Q: And the PHOSPHORUS [1]?
A: 12.27 mg/dL

Q: And the POTASSIUM [1]?
A: 6.52 MEQ/L

Q: And the SODIUM [1]?
A: 142.17 MEQ/L

Q: What about the “TOTAL BILIRUBIN” value [1] of the same compound?
A: 0.23 mg/dL

Q: And the “TOTAL PROTEIN” value [1]?
A: 5.63 G/DL

Q: And the “URIC ACID” value [1]?
A: 1.8 mg/dL

Q: What about the “ALANINE AMINOTRANSFERASE” value [2] of the same compound?
A: 45 u/L

Q: What about the ALBUMIN [2] of the same compound?
A: 3.43 G/DL

Q: And the “ALKALINE PHOSPHATASE” value [2]?
A: 376.67 u/L

Q: And the “ASPARTATE AMINOTRANSFERASE” value [2]?
A: 77 u/L

Q: What about the “BLOOD UREA NITROGEN” value [2] of the same compound?
A: 14.33 mg/dL

Q: What about the “CARBON DIOXIDE” value [2] of the same compound?
A: 34.33 mmol/L

Q: What about the CHLORIDE [2] of the same compound?
A: 101.33 MEQ/L

Q: And the CHOLESTEROL [2]?
A: 48.67 mg/dL

Q: And the “CREATINE PHOSPHOKINASE” value [2]?
A: 345.33 u/L

Q: What about the CREATININE [2] of the same compound?
A: 0.17 mg/dL

Q: What about the GLUCOSE [2] of the same compound?
A: 154.33 mg/dL

Q: What about the “LACTATE DEHYDROGENASE” value [2] of the same compound?
A: 99 u/L

Q: And the LIPASE [2]?
A: 8 u/L

Q: What about the PHOSPHORUS [2] of the same compound?
A: 12.1 mg/dL

Q: What about the POTASSIUM [2] of the same compound?
A: 7.04 MEQ/L

Q: And the SODIUM [2]?
A: 141.27 MEQ/L

Q: And the “TOTAL BILIRUBIN” value [2]?
A: 0.23 mg/dL

Q: And the “TOTAL PROTEIN” value [2]?
A: 4.67 G/DL

Q: And the “URIC ACID” value [2]?
A: 1.33 mg/dL

Q: And the “ABSOLUTE BASOPHIL” value [3]?
A: 0 CELLS/uL

Q: And the “ABSOLUTE EOSINOPHIL” value [3]?
A: 0 CELLS/uL

Q: And the “ABSOLUTE LYMPHOCYTE” value [3]?
A: 7936.67 CELLS/uL

Q: And the “ABSOLUTE MONOCYTE” value [3]?
A: 68.67 CELLS/uL

Q: And the “ABSOLUTE SEGMENTED NEUTROPHIL” value [3]?
A: 628 CELLS/uL

Q: What about the BASOPHIL [3] of the same compound?
A: 0%

Q: And the EOSINOPHIL [3]?
A: 0%

Q: What about the “ERYTHROCYTE COUNT” value [3] of the same compound?
A: 5.73 x10E6/uL

Q: What about the HEMATOCRIT [3] of the same compound?
A: 34.33%

Q: And the HEMOGLOBIN [3]?
A: 13.1 G/DL

Q: And the “LEUKOCYTE COUNT” value [3]?
A: 8.63 x10E3/uL

Q: What about the LYMPHOCYTE [3] of the same compound?
A: 91.67%

Q: What about the “MEAN CORPUSCULAR HEMOGLOBIN” value [3] of the same compound?
A: 22.9 pg

Q: And the “MEAN CORPUSCULAR HEMOGLOBIN CONCENTRATION” value [3]?
A: 38.13 G/DL

Q: And the “MEAN CORPUSCULAR VOLUME” value [3]?
A: 60.1 fL

Q: And the MONOCYTE [3]?
A: 1%

Q: What about the NEUTROPHIL [3] of the same compound?
A: 7.33%

Q: And the “NUCLEATED RED BLOOD CELLS” value [3]?
A: 0 /100WBC

Q: And the “PLATELET COUNT” value [3]?
A: 1317.33 x10E3/uL

Q: And the “ABSOLUTE BASOPHIL” value [4]?
A: 0 CELLS/uL

Q: And the “ABSOLUTE EOSINOPHIL” value [4]?
A: 26.67 CELLS/uL

Q: What about the “ABSOLUTE LYMPHOCYTE” value [4] of the same compound?
A: 7410 CELLS/uL

Q: And the “ABSOLUTE MONOCYTE” value [4]?
A: 139.67 CELLS/uL

Q: And the “ABSOLUTE SEGMENTED NEUTROPHIL” value [4]?
A: 1057 CELLS/uL

Q: What about the BASOPHIL [4] of the same compound?
A: 0%

Q: What about the EOSINOPHIL [4] of the same compound?
A: 0.33%

Q: And the “ERYTHROCYTE COUNT” value [4]?
A: 5.35 x10E6/uL

Q: What about the HEMATOCRIT [4] of the same compound?
A: 32.87%

Q: And the HEMOGLOBIN [4]?
A: 12.77 G/DL

Q: And the “LEUKOCYTE COUNT” value [4]?
A: 8.63 x10E3/uL

Q: What about the LYMPHOCYTE [4] of the same compound?
A: 85%

Q: And the “MEAN CORPUSCULAR HEMOGLOBIN” value [4]?
A: 23.83 pg

Q: What about the “MEAN CORPUSCULAR HEMOGLOBIN CONCENTRATION” value [4] of the same compound?
A: 38.8 G/DL

Q: And the “MEAN CORPUSCULAR VOLUME” value [4]?
A: 61.47 fL

Q: What about the MONOCYTE [4] of the same compound?
A: 1.67%

Q: What about the NEUTROPHIL [4] of the same compound?
A: 13%

Q: And the “NUCLEATED RED BLOOD CELLS” value [4]?
A: 0 /100WBC

Q: What about the “PLATELET COUNT” value [4] of the same compound?
A: 1213 x10E3/uL

Q: What about the “ALANINE AMINOTRANSFERASE” value [3] of the same compound?
A: 45.33 u/L

Q: And the ALBUMIN [3]?
A: 4.03 G/DL

Q: What about the “ALKALINE PHOSPHATASE” value [3] of the same compound?
A: 343 u/L

Q: What about the “ASPARTATE AMINOTRANSFERASE” value [3] of the same compound?
A: 78 u/L

Q: What about the “BLOOD UREA NITROGEN” value [3] of the same compound?
A: 15.33 mg/dL

Q: What about the “CARBON DIOXIDE” value [3] of the same compound?
A: 33.33 mmol/L

Q: And the CHLORIDE [3]?
A: 102.33 MEQ/L

Q: And the CHOLESTEROL [3]?
A: 68.67 mg/dL

Q: And the “CREATINE PHOSPHOKINASE” value [3]?
A: 249.67 u/L

Q: What about the CREATININE [3] of the same compound?
A: 0.16 mg/dL

Q: What about the GLUCOSE [3] of the same compound?
A: 141 mg/dL

Q: What about the “LACTATE DEHYDROGENASE” value [3] of the same compound?
A: 124.33 u/L

Q: What about the LIPASE [3] of the same compound?
A: 9 u/L

Q: What about the PHOSPHORUS [3] of the same compound?
A: 11.4 mg/dL

Q: What about the POTASSIUM [3] of the same compound?
A: 5.87 MEQ/L

Q: And the SODIUM [3]?
A: 146.43 MEQ/L

Q: What about the “TOTAL BILIRUBIN” value [3] of the same compound?
A: 0.1 mg/dL

Q: What about the “TOTAL PROTEIN” value [3] of the same compound?
A: 5.83 G/DL

Q: And the “URIC ACID” value [3]?
A: 0.73 mg/dL

Q: And the “ALANINE AMINOTRANSFERASE” value [4]?
A: 54.67 u/L

Q: What about the ALBUMIN [4] of the same compound?
A: 3.6 G/DL

Q: What about the “ALKALINE PHOSPHATASE” value [4] of the same compound?
A: 291.33 u/L

Q: And the “ASPARTATE AMINOTRANSFERASE” value [4]?
A: 78 u/L

Q: And the “BLOOD UREA NITROGEN” value [4]?
A: 16 mg/dL

Q: And the “CARBON DIOXIDE” value [4]?
A: 35.33 mmol/L

Q: And the CHLORIDE [4]?
A: 101.5 MEQ/L

Q: And the CHOLESTEROL [4]?
A: 65 mg/dL

Q: And the “CREATINE PHOSPHOKINASE” value [4]?
A: 253.67 u/L

Q: What about the CREATININE [4] of the same compound?
A: 0.15 mg/dL

Q: What about the GLUCOSE [4] of the same compound?
A: 135 mg/dL

Q: What about the “LACTATE DEHYDROGENASE” value [4] of the same compound?
A: 109 u/L

Q: And the LIPASE [4]?
A: 9 u/L

Q: What about the PHOSPHORUS [4] of the same compound?
A: 11.9 mg/dL

Q: What about the POTASSIUM [4] of the same compound?
A: 6.52 MEQ/L

Q: What about the SODIUM [4] of the same compound?
A: 143.55 MEQ/L

Q: And the “TOTAL BILIRUBIN” value [4]?
A: 0.1 mg/dL

Q: And the “TOTAL PROTEIN” value [4]?
A: 5.03 G/DL

Q: What about the “URIC ACID” value [4] of the same compound?
A: 0.73 mg/dL
